From US12319664B2, “Herbicidally active 3-phenylisoxazoline-5-carboxamides of cyclopentenylcarboxylic acid derivatives” (Bayer Aktiengesellschaft, priority 2018, dated 2025)

Tests used:
VERPE = experiment: Post-emergence herbicidal action against VERPE; assay type: in vivo, Veronica persica; conditions: application rate 80 g/ha
How it was run: (§1)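 Greenhouse post-emergence test: compound sprayed onto green plant parts at one-leaf stage as WP or EC preparation with 0.5% additive, water rate 600 l/ha. Percent activity scored by eye after roughly 3 weeks, where 0% matches controls and 100% means death.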

MATIN = experiment: Post-emergence herbicidal action against MATIN; assay type: in vivo, Matricaria inodora; conditions: application rate 80 g/ha, rated visually about 3 weeks after treatment
Protocol: [table] 2. Post-emergence herbicidal action against harmful plants and crop plant compatibility Seeds of monocotyledonous and dicotyledonous weeds and crop plants are placed in sandy loam in plastic or wood-fibre pots, covered with soil and cultivated in a greenhouse under controlled growth conditions. 2 to 3 weeks after sowing, the test plants are treated at the one-leaf stage. The compounds of the invention, formulated in the form of wettable powders (WP) or as emulsion concentrates (EC), are then sprayed onto the green parts of the plants as aqueous suspension or emulsion with addition of 0.5% additive at a water application rate of 600 l/ha (converted). After the test plants have been kept in the greenhouse under optimum growth conditions for about 3 weeks, the activity of the preparations is rated visually in comparison to untreated controls. For example, 100% activity=the plants have died, 0% activity=like control plants.

SETVI = experiment: Post-emergence herbicidal action against SETVI; assay type: in vivo, Setaria viridis; conditions: application rate 80 g/ha, rated visually after about 3 weeks
How it was run: as §1

ALOMY = experiment: Post-emergence herbicidal action against ALOMY; assay type: in vivo, Alopecurus myosuroides; conditions: application rate 80 g/ha, rated visually after about 3 weeks
How it was run: as §1

VIOTR = experiment: Post-emergence herbicidal action against VIOTR; assay type: in vivo, Viola tricolor; conditions: application rate 80 g/ha, rated visually about 3 weeks after treatment
How it was run: as §1

AMARE = experiment: Post-emergence herbicidal action against AMARE; assay type: in vivo, Amaranthus retroflexus; conditions: application rate 80 g/ha, rated visually about 3 weeks after treatment
How it was run: as §1

HORMU = experiment: Post-emergence herbicidal action against HORMU; assay type: in vivo, Hordeum murinum; conditions: application rate 80 g/ha
How it was run: as §1

POLCO = experiment: Post-emergence herbicidal action against POLCO; assay type: in vivo, Polygonum convolvulus; conditions: application rate 80 g/ha, rated visually about 3 weeks after treatment
How it was run: as §1

AVEFA = experiment: Post-emergence herbicidal action against AVEFA; assay type: in vivo, Avena fatua; conditions: application rate 80 g/ha, rated visually after about 3 weeks
How it was run: as §1

LOLRI = experiment: Post-emergence herbicidal action against LOLRI; assay type: in vivo, Lolium rigidum; conditions: application rate 80 g/ha, rated visually after about 3 weeks
How it was run: as §1

PHBPU = experiment: Post-emergence herbicidal action against PHBPU; assay type: in vivo, Pharbitis purpurea; conditions: application rate 80 g/ha, rated visually about 3 weeks after treatment
How it was run: as §1

STEME = experiment: Post-emergence herbicidal action against STEME; assay type: in vivo, Stellaria media; conditions: application rate 80 g/ha, rated visually about 3 weeks after treatment
How it was run: as §1

ABUTH = experiment: Post-emergence herbicidal action against ABUTH; assay type: in vivo, Abutilon theophrasti; conditions: application rate 80 g/ha, rated visually about 3 weeks after treatment
How it was run: as §1

ECHCG = experiment: Post-emergence herbicidal action against ECHCG; assay type: in vivo, Echinochloa crus-galli; conditions: application rate 80 g/ha, rated visually after about 3 weeks
How it was run: as §1

Structure (SMILES) | Herbicidal action against [%] VERPE (VERPE) | Herbicidal action against [%] MATIN (MATIN) | Herbicidal action against [%] SETVI (SETVI) | Herbicidal action against [%] ALOMY (ALOMY) | Herbicidal action against [%] VIOTR (VIOTR) | Herbicidal action against [%] AMARE (AMARE) | Herbicidal action against [%] HORMU (HORMU) | Herbicidal action against [%] POLCO (POLCO) | Herbicidal action against [%] AVEFA (AVEFA) | Herbicidal action against [%] LOLRI (LOLRI) | Herbicidal action against [%] PHBPU (PHBPU) | Herbicidal action against [%] STEME (STEME) | Herbicidal action against [%] ABUTH (ABUTH) | Herbicidal action against [%] ECHCG (ECHCG)
Cc1cc(F)cc(C2=NOC(C(=O)NC3C=CC(C(=O)OCC(F)(F)F)C3)(C(F)(F)F)C2)c1 (mixture of isomers) [Example I-032] | 80% | 80% | 90% | 90% | 80% | 90% | 80% | 100% | 100% | 90% |  |  |  | 
C=CC1(C(=O)NC2C=CC(C(=O)OCc3ccccc3)C2)CC(c2cc(F)cc(F)c2)=NO1 (mixture of isomers) [Example I-033] | 80% | 90% | 90% | 90% |  | 90% | 80% | 100% | 90% | 90% | 80% | 80% | 80% | 90%
CCOC(=O)C1C=CC(NC(=O)C2(C(F)(F)F)CC(c3cc(C)cc(C(F)(F)F)c3)=NO2)C1 (mixture of isomers) [Example I-036] | 80% | 80% |  | 90% | 90% | 80% | 80% | 90% | 80% | 90% |  |  | 80% | 
COC(=O)C1C=CC(NC(=O)C2(C(F)(F)F)CC(c3cc(Cl)cc(Cl)c3)=NO2)C1 (mixture of isomers) [Example I-039] | 80% | 80% | 80% | 100% |  | 80% | 80% |  | 90% | 100% | 80% | 90% | 80% | 90%
COC(=O)C1C=CC(NC(=O)C2(C(F)(F)F)CC(c3cc(C)cc(C(F)(F)F)c3)=NO2)C1 (mixture of isomers) [Example I-048] | 80% | 80% |  | 100% |  |  | 90% |  | 90% | 80% | 80% | 90% | 80% | 80%
COC(=O)C1C=CC(NC(=O)C2(C(F)(F)F)CC(c3cc(C)cc(C)c3)=NO2)C1 (mixture of isomers) [Example I-055] | 80% | 80% | 90% | 90% | 90% | 80% | 90% | 90% | 80% | 90% |  | 90% | 80% | 90%
CCOC(=O)C1C=CC(NC(=O)C2(C(F)(F)F)CC(c3cc(F)cc(C#N)c3)=NO2)C1 (mixture of isomers) [Example I-071] | 80% | 80% | 90% | 90% | 80% | 80% | 90% | 90% | 100% | 90% |  | 90% | 80% | 90%
C=CC1(C(=O)NC2C=CC(C(=O)NS(=O)(=O)CCC)C2)CC(c2cc(F)cc(F)c2)=NO1 (mixture of isomers) [II-14] | 90% | 90% | 90% | 100% | 90% | 90% | 90% | 90% | 100% | 100% |  |  |  | 100%
CC1(C(=O)N[C@H]2C=C[C@@H](C(=O)OCc3ccccc3)C2)CC(c2cc(F)cc(F)c2)=NO1 (stereo partly drawn) [Example I-008] | 90% | 90% | 90% | 100% |  | 90% | 90% | 90% | 90% | 90% | 90% | 90% | 90% | 90%
CC1(C(=O)N[C@H]2C=C[C@@H](C(=O)OCCCl)C2)CC(c2cc(F)cc(F)c2)=NO1 (stereo partly drawn) [Example I-009] | 90% | 90% | 90% | 90% |  |  | 90% | 90% | 90% | 90% | 90% | 90% | 90% | 90%
CCOC(=O)[C@@H]1C=C[C@H](NC(=O)C2(C(F)(F)F)CC(c3cc(C)cc(F)c3)=NO2)C1 (stereo partly drawn) [Example I-022] | 80% | 80% | 100% | 100% | 80% | 100% | 80% | 100% | 100% | 100% |  |  | 90% | 80%
COC(=O)[C@@H]1C=C[C@H](NC(=O)C2(C(F)(F)F)CC(c3cc(C)cc(F)c3)=NO2)C1 (stereo partly drawn) [Example I-024] | 80% | 80% | 80% | 90% | 80% | 90% | 80% | 90% | 100% | 90% |  |  | 80% | 90%
COC(=O)[C@@H]1C=C[C@H](NC(=O)C2(C(F)(F)F)CC(c3cc(C)cc(Cl)c3)=NO2)C1 (stereo partly drawn) [Example I-027] | 80% | 90% | 90% | 90% | 80% | 80% | 80% |  | 90% | 90% |  | 80% | 80% | 80%
